Measurements from patent publication US8236512B1, “Methods of developing terpene synthase variants” (Amyris, Inc., priority 2011, dated 2012).

Molecular target: Artemisia annua β-farnesene synthase (SEQ ID NO: 111) variant FS_C_8 F11S/V24D/L18I/M35T/T196S/Y288F/T319S/R348K/T385A/I434T/T446N/I460V/V467I (parent coding se (Artemisia annua, UniProt Q9FXY7))
Experiment: Steady-state kinetics of purified farnesene synthase variant FS_C_8
Format: biochemical
Settings: purified enzyme

Chain of Artemisia annua β-farnesene synthase (SEQ ID NO: 111) variant FS_C_8 F11S/V24D/L18I/M35T/T196S/Y288F/T319S/R348K/T385A/I434T/T446N/I460V/V467I (parent coding se (Q9FXY7 whole entry F11S/L18I/V24D/M35T/T196S/Y288F/T319S/R348K): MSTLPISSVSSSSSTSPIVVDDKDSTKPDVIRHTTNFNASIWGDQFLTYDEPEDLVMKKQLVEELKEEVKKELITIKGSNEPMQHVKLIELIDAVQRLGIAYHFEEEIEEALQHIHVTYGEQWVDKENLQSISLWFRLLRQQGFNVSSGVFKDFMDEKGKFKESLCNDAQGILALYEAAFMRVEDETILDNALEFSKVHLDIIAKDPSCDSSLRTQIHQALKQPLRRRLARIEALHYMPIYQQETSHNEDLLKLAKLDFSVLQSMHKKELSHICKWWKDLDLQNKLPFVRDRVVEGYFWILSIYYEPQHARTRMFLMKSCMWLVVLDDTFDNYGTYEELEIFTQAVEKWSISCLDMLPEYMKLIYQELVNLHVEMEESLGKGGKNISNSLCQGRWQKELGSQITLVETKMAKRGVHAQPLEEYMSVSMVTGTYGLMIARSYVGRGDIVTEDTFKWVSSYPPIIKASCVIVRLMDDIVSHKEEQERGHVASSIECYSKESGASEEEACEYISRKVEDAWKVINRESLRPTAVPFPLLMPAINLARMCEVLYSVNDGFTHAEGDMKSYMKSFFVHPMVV

For `CC(C)=CCC/C(C)=C/CC/C(C)=C/CO[P@@](=O)(O)OP(=O)(O)O` (stereo in doubt) [FPP, farnesyl diphosphate], the Km was 1.55 ± 0.76 µM.
